Patent US4694011A, “Novel 7-hydroxy-indoles” (Roussel Uclaf, priority 1985, dated 1987)

What was measured:
mice = assay: Acute toxicity; assay type: in vivo; settings: oral administration
Description: The lethal doses LD50 of the different compounds tested were evaluated after oral administration to mice and LD0 is the maximum dose not causing any mortality in 8 days.

arterial pressure = assay: Hypotensive activity (arterial pressure, anesthetized rats); assay type: in vivo, rat (WISTAR); settings: male WISTAR rats anesthetized with nembutal, intravenous, 1 mg/kg
Description: The hypotensive activity was studied on male rats of the WISTAR strain weighing about 300 g and anesthetized with nembutal (50 mg/kg by intraperitoneal route). The product tested was administered intravenously into the jugular vein and the carotidien arterial pressure was measured before and after administration of the product tested.

[1] = system: average arterial pressure; assay: Test for direct vasodilatory activity of vascular relaxing postsynaptic activity (demedullated rats, angiotensine II); assay type: in vivo, rat (Sprague-Dawley)
Description: D. Test for Direct Vasodilatary Activity of Vascular Relaxing Postsynaptic-activity
Rats of the Sprague-Dawley strain weighing 320-350 g were anesthetized with pentobarbital (50 mg/kg by intraperitoneal injection) and after the positioning of a carotidien catheter to measure the arterial pressure and a jugular catheter for the injection of the test compounds and possible antagonists, the animals were demedullated with a steel rod. This rod was introduced by the right orbital orifice and descended the length of the spinal cord. The animals were then immediately placed under assisted respiration and a few minutes after the arterial pressure was stabilized, the animals received an intravenous perfusion of angiotensine II of […] to increase their average pressure by about 100 mm of mercury. After a plateau was reached, the test substance was injected intravenously every 2 minutes and in cumulated doses. The percentage drop in the average arterial pressure obtained enabled a dose-response curve to be traced reflecting the vasodilatary activity of the compound studied. The preliminary treatment of the animals with different antagonists enabled the mechanism of action of the compound to be determined. The products were tested between 0.001 and 1 mg/kg and Domperidone and propanolol were used as antagonists.

[2] = system: force of cardiac contraction; assay: Positive inotropic activity; assay type: in vivo, rat (Sprague-Dawley); settings: 10 to 100 mg/kg
Description: E. Positive inotropic activity
Rats of Sprague-Dawley strain weighing 300 to 350 g were anesthetized with pentobarbital (50 mg/kg by intraperitoneal injection) and a catheter was placed in the left ventricle to measure the cardiac intraventricular pressure and the dP/dt VG (or rate of variation of the intraventricular pressure). A second arterial catheter placed in the femoral artery enabled the systemic arterial pressure and the cardiac frequency to be registered. The test products and the possible antagonists were injected by a catheter placed in a jugular vein. This model enabled the effect of various substances on the force of cardiac contraction to be evaluated in vivo as a function of the dose and the time.

[3] = system: dopaminergic stimulating activity at the central level; assay: Rotation behavior after unilateral lesion of the nigra-striated bundle by 6-hydroxydopamine; assay type: in vivo, rat; settings: male rats, intraperitoneal, 5 mg/kg
Description: A. Rotation behavior after unilateral lesion of the nigra-striated bundle by 6-hydroxydopamine
Male rats weighing about 220 g were injured in the nigra-striated dopaminergic bundle by Ungerstedt's method [Acta physiol. Scand. 1971, Vol. 82 suppl. p. 367-69 93] modified by unilateral injection of 9.2 μg of 6-hydroxydopamine hydrochloride in solution in 4 μl of physiological solution containing 0.5 mg/ml of ascorbic acid. The test products were administered intraperitoneally and the animals treated, on average 6, were placed individually in a rotometer which enabled the counting of the number of rotations carried out by each animal in the opposite direction to the injured side.

[4] = system: dopaminergic agonist action at the central level; assay: Stereotype behavior; assay type: in vivo, rat; settings: male rats, intraperitoneal, 50 mg/kg
Description: The tests were carried out on groups of 5 male rats weighing 150 to 180 g and each animal was placed individually in a barred cage (29×25×17 cm) containing a few wood shavings. The test product was administered intraperitoneally and the behavior of the animals was noted every half-hour for 5 hours with the rating of Halliwell et al [Brit. J. Pharmacol. 1964, Vol. 23, 330-350]. The animal was asleep (0), it was awake but immobile (1), it turned in the cage (2), it sniffed the cover (3), it licks the walls (4), it touched the wood shavings or the bars of the cage with its teeth (5), it bit the shavings or the bars of the cage (6).

[5] = system: pressure responses to the electrical stimulation; assay: Presynaptic activity at the vascular level; assay type: in vivo, rat (Sprague-Dawley); settings: demedullated Sprague-Dawley rats
Description: F. Presynaptic activity at the vascular level
Rats of Sprague-Dawley strain weighing 320-350 g were anesthetized with pentobarbital (50 mg/kg by intraperitoneal injection) and after insertion of a carotidien catheter to measure the arterial pressure and a jugular catheter for the injection of the test compounds, the animals were demedullated with a stainless steel rod introduced by the right orbitary orifice. This rod was insulated along its length with the exception of the last five centimeters. As soon as the medulla was destroyed, the animals were placed under assisted respiration. After a period of rest of about 20 minutes, the animals were submitted to electrical stimulations applied between the demedullation rod and a neutral electrode placed under the skin in the thigh region with impulses of 2 msec., frequency of 10 Hz and amplitude of about 20 V for 30 sec. for 5 minutes each. […] The addition of appropriate blockers and the combination of this technique with the modification of dose-response curves to vasoconstricting agents such as noradrenaline enabled the pharmacological profile of the test compound to be determined.

[6] = anesthetized Sprague-Dawley rats, jugular vein

Row | Compound | LD0 (maximum dose not causing any mortality in 8 days) (mice) [mg/kg] | effect on carotidien arterial pressure (arterial pressure) | origin of the vasodilator effect (mechanism) ([1]; Domperidone and propanolol used as antagonists) | minimal effective dose ([1]; Rattus norvegicus, demedullated Sprague-Dawley rats, angiotensine II perfusion, intravenous cumulated doses, tested between 0.001 and 1 mg/kg, read-out: dose from which a dose dependent vasodilator effect occurs) [mg/kg] | positive inotropic effect (conclusion) [2] | blockade by propanolol of the increase of dP/dt and maximal ventricular pressure ([2]; with propanolol) | dP/dt (rate of variation of the intraventricular pressure) [2, 6] | maximal ventricular pressure [2, 6] | central dopaminergic stimulating activity (conclusion from rotation test) [3] | rotations in the opposite direction to the injured side ([3]; at least ninety minutes) | central dopaminergic agonist action (conclusion from stereotype test) [4] | stereotype movements ([4]; noted every half-hour for 5 hours) | site of action linked to the reduction of the responses [5] | pressure responses to the electrical stimulation ([5]; intravenous) | blockade by sulpiride of the reduction of the responses ([5]; with sulpiride)
1 | Br.CCCN1CCCC(c2ccc(O)c3c2CC(=O)N3)C1 (stereo not shown) [Example 4, 1,3-dihydro-7-hydroxy-4-(1-propyl-3-piperidinyl)-2H-indol-2-one hydrobromide] | 400 | – | – | – | – | – | – | – | – | – | – | – | – | – | –
2 | Br.O=C1Cc2c(C3CCCNC3)ccc(O)c2N1 (stereo not shown) [Example 3, 1,3-dihydro-7-hydroxy-4-(3-piperidinyl)-2H-indol-2-one hydrobromide] | 400 | slight effect on the arterial pressure | of dopaminergic and α-adrenergic origin | ≥ 0.001 | possessed positive inotropic properties | not otherwise blocked by propanolol | increase of the dP/dt | increase of the dP/dt and of the maximal ventricular pressure | substantially deprived of dopaminergic stimulating activity at the central level | practically no rotations | substantially deprived of dopaminergic agonist action at the central level | practically no stereotype movements | essentially post-synaptic activity | reduction of the responses | not blocked by sulpiride
